PubChem BioAssay (NCI)
Where “and” joins values, the source holds several entries; their conditions need not be identical. Equal values may be shown once.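 Where inhibition never reached the appropriate level, the endpoint shown equals the highest concentration tested. Otherwise, values were interpolated linearly from a five-concentration, 48-hour dose response in 96-well plates. The concentration for 50% growth inhibition is given as GI50. Definition used: TGI = concentration required for complete inhibition of growth.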

Columns and labels:
Test in all cases: NCI anticancer screen, dose series, 48 h
[1] = tested on: RXF 393 renal
[2] = tested on: SK-OV-3 ovarian
[3] = tested on: KM12 colon
[4] = tested on: HCC-2998 colon
[5] = tested on: M14 melanoma
[6] = tested on: OVCAR-8 ovarian
[7] = tested on: MCF7 breast
[8] = tested on: HL-60(TB) leukemia
[9] = tested on: HOP-92 NSCLC
[10] = tested on: EKVX NSCLC
[11] = tested on: IGROV1 ovarian
[12] = tested on: HT29 colon

Structure (SMILES) | TGI [1] | TGI [2] [µM] | TGI [3] | TGI [4] [µM] | TGI [5] | TGI [6] | TGI [7] | TGI [8] | TGI [9] | TGI [10] | TGI [11] | TGI [12] | GI50 [7] [µM] | GI50 [8] [µM] | GI50 [1] | GI50 [3] | GI50 [5] | GI50 [6] | GI50 [9]
CC1OC(O[C@H]2CC[C@]3(C)[C@H]4CC=C5[C@@H]6[C@@H](C)[C@H](C)CC[C@]6(C(=O)O)CC[C@@]5(C(=O)O)[C@]4(C)CC[C@H]3C2(C)C)C(O)C(O)C1O (some centres undefined) | > 75 µM | > 75 | > 75 µM | > 75 | > 75 µM | > 75 µM | > 75 µM | > 75 µM | > 75 µM | – | – | – | – | – | – | – | – | – | –
CCOC(=O)CCC(NC(=O)c1ccc(Nc2nc3cc(C(F)(F)F)ccc3nc2-c2ccccc2)cc1)C(=O)OCC (centres undefined) | > 100 µM | > 100 | > 100 µM | > 100 | > 100 µM | > 100 µM | > 100 µM | > 100 µM | > 100 µM | > 100 µM | > 100 µM | > 100 µM | – | – | – | – | – | – | –
CC1(C)OCC(C2OC(N3O[C@H](CI)C[C@@H]3c3ccccc3)C3OC(C)(C)OC23)O1 (some centres undefined) | > 100 µM | > 100 | > 100 µM | > 100 | > 100 µM | – | > 100 µM | > 100 µM | > 100 µM | > 100 µM | > 100 µM | > 100 µM | – | – | – | – | – | – | –
Cc1cc2c(s1)C(=O)c1sccc1C2=O | 2.46 µM | 4.47 | 3 µM | 3.15 | 0.356 µM | 1.56 µM | 2.78 µM | > 100 µM | 2.97 µM | 3.32 µM | 3.05 µM | 4.3 µM | – | – | – | – | – | – | –
Cc1sc2nc3n(c(=O)c2c1C)N=C(c1ccc(Cl)cc1)CS3 | > 100 µM | > 100 | > 100 µM | > 100 | – | > 100 µM | > 100 µM | > 100 µM | > 100 µM | > 100 µM | – | > 100 µM | – | – | – | – | – | – | –
O=C1CCCC2=C1CC1=C(CCCC1=O)N2c1cccc2ccccc12 | 54.4 µM | > 100 | > 100 µM | > 100 | > 100 µM | > 100 µM | > 100 µM | > 100 µM | > 100 µM | > 100 µM | > 100 µM | > 100 µM | – | – | – | – | – | – | –
COC(=O)[C@H](Cc1ccccc1)NC(=O)N1CCN(C(=O)N[C@@H](Cc2ccccc2)C(=O)OC)CCN(C(=O)N[C@@H](Cc2ccccc2)C(=O)OC)CC1 | > 100 µM | > 100 | > 100 µM | > 100 | > 100 µM | > 100 µM | > 100 µM | > 100 µM | > 100 µM | > 100 µM | > 100 µM | > 100 µM | – | – | – | – | – | – | –
C/C=C(/C)C(=O)O[C@H]1C(C)=C[C@]23C(=O)[C@@H](C=C(COC(C)=O)[C@@H](O)[C@]12O)[C@H]1[C@@H](C[C@H]3C)[C@@]1(C)OC(=O)/C(C)=C\C | 5.25 µM | 8.2 | 4.06 µM | 5.59 | 5.47 µM | 11.3 µM | 6.11 µM | 5.67 µM | 6.34 µM | 6.38 µM | 10.2 µM | 1.49 µM | – | – | – | – | – | – | –
C=C[C@H]1CN2CCc3c([nH]c4c([C@H]5CCCN5C)c(O)ccc34)[C@@H]2C[C@@H]1C[C@H]1c2[nH]c3ccccc3c2CCN1C | 2.25 µM | 3.31 | 2.82 µM | 1.21 | 2.89 µM | 2.91 µM | 2.22 µM | 0.564 µM | 2.82 µM | 3.34 µM | 3.04 µM | 2.75 µM | 1.05 | 0.0562 | – | – | – | – | –
C=C1C(=O)C23CC1C[C@H](OC(C)=O)C2C1(C)C(OC(C)=O)C[C@H](O)C(C)(C)[C@H]1C(O)[C@@H]3OC(C)=O (some centres undefined) | 19.9 µM | 56.5 | > 54.5 µM | 36.9 | 18.7 µM | 22 µM | 19.4 µM | 6.11 µM | 24.8 µM | 29.1 µM | 30.6 µM | 30 µM | – | – | – | – | – | – | –
O=C1CCC2SC1CCC2=O | > 100 µM | > 100 | > 100 µM | > 100 | > 100 µM | > 100 µM | > 100 µM | > 100 µM | > 100 µM | > 100 µM | > 100 µM | > 100 µM | – | – | – | – | – | – | –
[N-]=[N+]=Nc1ccc2c(c1)Sc1ccccc1N2CCCCCl | > 100 µM | > 100 | > 100 µM | > 100 | > 100 µM | > 100 µM | > 100 µM | 64.3 µM | > 100 µM | > 100 µM | > 100 µM | > 100 µM | – | – | – | – | – | – | –
CCCCc1c2c(nc3c1CCC/C3=C\c1ccccc1)C(=O)C(CN(C)C)CC2 (centres undefined) | 30.9 µM | 40.6 | 33.6 µM | 54.7 | 33.7 µM | 46.1 µM | 15.7 µM | 18.2 µM | 33.5 µM | 36.1 µM | 36.9 µM | 28.9 µM | – | – | – | – | – | – | –
CCOC(=O)c1c(NC(=O)Nc2ccccc2)c(C(N)=O)c2n1CCCCC2 | > 100 µM | > 100 | > 100 µM | > 100 | > 100 µM | > 100 µM | > 100 µM | > 100 µM | > 100 µM | > 100 µM | > 100 µM | > 100 µM | – | – | – | – | – | – | –
COC(=N)C12C(N)=NC(OC)(OC)C1(C#N)C21C(=O)N(c2ccccc2)N=C1C (centres undefined) | > 100 µM | > 100 | > 100 µM | > 100 | > 100 µM | > 100 µM | > 100 µM | > 100 µM | > 100 µM | > 100 µM | > 100 µM | > 100 µM | – | – | – | – | – | – | –
CCC(=O)COc1ccc(NC(NC(=O)C(C(F)(F)F)C(F)(F)F)(C(F)(F)F)C(F)(F)F)cc1 | 48.7 µM | > 100 | > 100 µM | > 100 | > 100 µM | 62.8 µM | > 100 µM | 56.1 µM | > 100 µM | > 100 µM | 44.9 µM | 70.3 µM | – | – | – | – | – | – | –
CC1=C(OC2OC(CO)C(O)C(O)C2O)C(=O)C[C@H]2C1=CC[C@@H]1[C@@]2(C)C(=O)C[C@]2(C)[C@@H]([C@@](C)(O)C(=O)CCC(C)(C)O)[C@H](O)C[C@@]12C (some centres undefined) | > 100 µM | > 100 | > 100 µM | > 100 | > 100 µM | > 100 µM | > 100 µM | > 100 µM | > 100 µM | > 100 µM | > 100 µM | > 100 µM | – | – | – | – | – | – | –
Cn1c2nc3ccccc3c-2cc2ccccc21 | 14.8 µM and 20.1 µM | > 100 | 11 µM and 46.4 µM | 17.6 | > 42.2 µM and 23.6 µM | 13.6 µM and > 100 µM | > 34.8 µM and 36.9 µM | 8.22 µM and 17 µM | 30.7 µM and 46.7 µM | 15.6 µM and 33.9 µM | 25.5 µM and > 100 µM | 18.3 µM and 31.4 µM | – | – | 3.45 µM and 7.68 µM | 2.19 µM and 6.02 µM | 4.29 µM and 11.2 µM | 2.48 µM and 7.18 µM | 3.06 µM and 11.7 µM
CC1C[C@]2(C)C(=S)Nc3ccccc3[C@@H]2Nc2ccccc21 (some centres undefined) | 34.8 µM | – | 28.9 µM | 40.6 | 32.4 µM | 29.5 µM | 27.3 µM | 77 µM | 25.2 µM | 57.5 µM | 40.3 µM | 26.6 µM | – | – | – | – | – | – | –
O=c1cc(-c2cccc(OC(F)(F)F)c2)[nH]c2cc3c(cc12)OCO3 | > 89.4 µM | – | > 100 µM | 0.157 | > 35.7 µM | > 52.2 µM | > 100 µM | 0.0315 µM | > 73.6 µM | > 100 µM | 16.3 µM | 26.6 µM | – | – | – | – | – | – | –
O=C1N=C(c2ccccc2)O/C1=C\c1ccccc1 | > 100 µM | > 100 | > 100 µM | > 100 | > 100 µM | > 100 µM | > 100 µM | > 100 µM | > 100 µM | – | > 100 µM | > 100 µM | – | – | – | – | – | – | –
CC1(O)/C(=N/O)CC2CC1C2(C)C (centres undefined) | > 100 µM | – | > 100 µM | > 100 | > 100 µM | > 100 µM | > 100 µM | > 100 µM | > 100 µM | – | > 100 µM | > 100 µM | – | – | – | – | – | – | –
CCCCCc1c2nc(c(CCCCC)c3ccc([nH]3)c(CCCCC)c3ccc([nH]3)c(CCCCC)c3nc1C=C3)C=C2 | – | > 100 | > 100 µM | > 100 | > 100 µM | > 100 µM | > 100 µM | > 100 µM | > 100 µM | > 100 µM | > 100 µM | > 100 µM | – | – | – | – | – | – | –
CC1(C)C(=O)N=C(N)N1C(=O)OCc1ccccc1 | – | > 100 | > 100 µM | > 100 | > 100 µM | > 100 µM | > 100 µM | > 100 µM | > 100 µM | > 100 µM | > 100 µM | > 100 µM | – | – | – | – | – | – | –
O=C1/C(=C\c2cccc(Oc3ccccc3)c2)SC(c2ccccc2)N1c1ccc(Cl)cc1 (centres undefined) | > 100 µM | > 100 | > 100 µM | > 100 | > 100 µM | > 100 µM | > 100 µM | > 100 µM | > 100 µM | > 100 µM | – | > 100 µM | – | – | – | – | – | – | –
O=C(Nc1nc(C23CC4CC(CC(C4)C2)C3)cs1)c1cc2cc(Br)cc(Br)c2oc1=O | > 100 µM | > 100 | > 100 µM | > 100 | – | > 100 µM | > 100 µM | > 100 µM | > 100 µM | > 100 µM | > 100 µM | > 100 µM | – | – | – | – | – | – | –
